The record followed here is patent US20140058103A1, “Inhibitors of PI3K-Delta and Methods of Their Use and Manufacture” (Exelixis, Inc., priority 2010, published 2014).

In the test the target is PI3K delta (Homo sapiens, UniProt O00329). The test is described as follows: Luciferase-coupled chemiluminescence kinase assay (ATP consumption, KinaseGlo). The test is classed as biochemical. The method in brief: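 ATP consumption measured by KinaseGlo luciferase chemiluminescence after a 2 h reaction at ambient temperature, with ATP at or below the kinase KM. Ten inhibitor concentrations per curve; IC50 from four-parameter nonlinear regression.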
(In Kinase-Glo more light means more ATP remaining.)

Structures are written as SMILES.

Chain of PI3K delta (O00329 whole entry): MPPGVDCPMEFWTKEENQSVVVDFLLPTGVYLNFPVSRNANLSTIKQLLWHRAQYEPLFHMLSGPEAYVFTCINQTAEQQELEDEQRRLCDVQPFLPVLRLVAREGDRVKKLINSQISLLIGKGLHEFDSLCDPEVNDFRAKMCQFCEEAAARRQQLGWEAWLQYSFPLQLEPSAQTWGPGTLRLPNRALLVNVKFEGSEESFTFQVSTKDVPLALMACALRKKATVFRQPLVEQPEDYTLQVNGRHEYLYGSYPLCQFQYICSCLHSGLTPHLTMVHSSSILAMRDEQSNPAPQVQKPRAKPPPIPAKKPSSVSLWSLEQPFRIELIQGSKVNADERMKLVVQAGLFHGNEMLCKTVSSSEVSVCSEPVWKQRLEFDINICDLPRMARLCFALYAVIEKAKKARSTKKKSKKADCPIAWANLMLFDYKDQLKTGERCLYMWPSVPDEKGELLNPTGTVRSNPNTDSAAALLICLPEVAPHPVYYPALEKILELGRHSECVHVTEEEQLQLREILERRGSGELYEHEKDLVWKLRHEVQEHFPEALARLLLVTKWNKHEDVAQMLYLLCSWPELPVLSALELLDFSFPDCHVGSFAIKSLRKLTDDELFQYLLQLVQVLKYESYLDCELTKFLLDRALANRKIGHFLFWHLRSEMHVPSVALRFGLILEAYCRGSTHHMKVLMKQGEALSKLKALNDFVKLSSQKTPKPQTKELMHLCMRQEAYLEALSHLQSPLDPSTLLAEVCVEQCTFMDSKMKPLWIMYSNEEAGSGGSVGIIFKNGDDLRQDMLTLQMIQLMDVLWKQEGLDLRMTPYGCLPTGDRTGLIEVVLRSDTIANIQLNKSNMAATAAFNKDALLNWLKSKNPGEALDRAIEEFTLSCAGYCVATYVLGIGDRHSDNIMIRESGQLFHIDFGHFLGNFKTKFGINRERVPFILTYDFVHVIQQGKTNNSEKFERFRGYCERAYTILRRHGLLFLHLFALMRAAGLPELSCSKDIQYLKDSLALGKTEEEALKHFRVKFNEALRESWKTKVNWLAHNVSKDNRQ
Chain of PI3K delta (P27986 whole entry partner): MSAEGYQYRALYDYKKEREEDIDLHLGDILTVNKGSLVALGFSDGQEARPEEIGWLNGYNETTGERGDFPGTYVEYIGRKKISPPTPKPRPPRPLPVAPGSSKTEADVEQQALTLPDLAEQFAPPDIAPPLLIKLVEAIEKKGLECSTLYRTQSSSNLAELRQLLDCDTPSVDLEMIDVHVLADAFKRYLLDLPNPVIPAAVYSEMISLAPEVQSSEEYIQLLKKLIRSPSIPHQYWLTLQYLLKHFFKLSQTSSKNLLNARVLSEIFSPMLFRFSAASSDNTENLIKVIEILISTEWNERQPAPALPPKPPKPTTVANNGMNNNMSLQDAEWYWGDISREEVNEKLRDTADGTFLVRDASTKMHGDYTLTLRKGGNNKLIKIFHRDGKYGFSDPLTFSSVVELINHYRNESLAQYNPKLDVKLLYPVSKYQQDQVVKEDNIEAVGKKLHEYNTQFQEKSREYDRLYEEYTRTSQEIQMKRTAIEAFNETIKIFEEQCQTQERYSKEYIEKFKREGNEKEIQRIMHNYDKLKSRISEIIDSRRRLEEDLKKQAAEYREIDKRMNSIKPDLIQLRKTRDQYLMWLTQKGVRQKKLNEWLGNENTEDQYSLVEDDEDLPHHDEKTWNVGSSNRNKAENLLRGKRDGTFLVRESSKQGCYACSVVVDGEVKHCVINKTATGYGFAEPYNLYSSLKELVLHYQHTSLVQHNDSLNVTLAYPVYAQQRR

As a reminder, the IC50 is the concentration at which inhibition is half-maximal. Low values mean inhibition by little substance, high ones a need for much substance. `Cn1c(C(=O)NCC2CC2)nc2c(N3CCC4(CC3)C(=O)NCC4c3ccccc3)ncnc21` (centres unmarked) [Compound 99, N-(cyclopropylmethyl)-9-methyl-6-(1-oxo-4-phenyl-2,8-diazaspiro[4.5]dec-8-yl)-9H-purine-8-carboxamide] registered an IC50 of 500 to 1500 nM. `Cn1c(C(=O)NCC2CC2)nc2c(N3CCC(c4c[nH]c5ccccc45)CC3)ncnc21` [Compound 100, N-(cyclopropylmethyl)-6-[4-(1H-indol-3-yl)piperidin-1-yl]-9-methyl-9H-purine-8-carboxamide]: the concentration for half-maximal inhibition (IC50) was in the range of 500 to 1500 nM. Under `Cn1c(C(=O)NCC2CC2)nc2c(N3CCC(n4c(C(F)(F)F)nc5ccccc54)CC3)ncnc21` [Compound 101, N-(cyclopropylmethyl)-9-methyl-6-{4-[2-(trifluoromethyl)-1H-benzimidazol-1-yl]piperidin-1-yl}-9H-purine-8-carboxamide] stands 250 to 500 nM; under `Cc1nnc(-c2nc3c(N4CCC(n5c(=O)[nH]c6ccccc65)CC4)ncnc3n2C)o1` [Compound 102, 1-{1-[9-methyl-8-(5-methyl-1,3,4-oxadiazol-2-yl)-9H-purin-6-yl]piperidin-4-yl}-1,3-dihydro-2H-benzimidazol-2-one], 50 to 250 nM; under `Cn1c(C(=O)N2CC(F)(F)C2)nc2c(N3CCC4(CC3)C(=O)Nc3ccccc34)ncnc21` [Compound 103, 1′-{8-[(3,3-difluoroazetidin-1-yl)carbonyl]-9-methyl-9H-purin-6-yl}spiro[indole-3,4′-piperidin]-2(1H)-one], 50 to 250 nM.

Molecule `Cn1c(C(=O)N2CC(F)(F)C2)nc2c(N3CCC(n4c(=O)[nH]c5ccccc54)CC3)ncnc21` [Compound 104, 1-(1-{8-[(3,3-difluoroazetidin-1-yl)carbonyl]-9-methyl-9H-purin-6-yl}piperidin-4-yl)-1,3-dihydro-2H-benzimidazol-2-one] had an IC50 of 50 to 250 nM.

On to `Cn1c(C(=O)NC2CCC(F)(F)CC2)nc2c(N3CCC4(CC3)C(=O)Nc3ccccc34)ncnc21` [Compound 105, N-(4,4-difluorocyclohexyl)-9-methyl-6-(2-oxo-1,2-dihydro-1′H-spiro[indole-3,4′-piperidin]-1′-yl)-9H-purine-8-carboxamide], for which the IC50 is 50 to 250 nM. Under `Cn1c(C(=O)N2CCC(F)(F)C2)nc2c(N3CCC4(CC3)C(=O)Nc3ccccc34)ncnc21` [Compound 106, 1′-{8-[(3,3-difluoropyrrolidin-1-yl)carbonyl]-9-methyl-9H-purin-6-yl}spiro[indole-3,4′-piperidin]-2(1H)-one] stands 50 to 250 nM.

`Cn1c(C(=O)NC2CCC(F)(F)CC2)nc2c(N3CCC(n4c(=O)[nH]c5ccccc54)CC3)ncnc21` [Compound 107, N-(4,4-difluorocyclohexyl)-9-methyl-6-[4-(2-oxo-2,3-dihydro-1H-benzimidazol-1-yl)piperidin-1-yl]-9H-purine-8-carboxamide]: the IC50 lay within 50 to 250 nM.

The molecule `Cn1c(C(=O)N2CCC(F)(F)C2)nc2c(N3CCC(n4c(=O)[nH]c5ccccc54)CC3)ncnc21` [Compound 108, 1-(1-{8-[(3,3-difluoropyrrolidin-1-yl)carbonyl]-9-methyl-9H-purin-6-yl}piperidin-4-yl)-1,3-dihydro-2H-benzimidazol-2-one] showed an IC50 of 50 to 250 nM.

As for `Cn1c(C(=O)N2CC[C@H](F)C2)nc2c(N3CCC4(CC3)C(=O)Nc3ccccc34)ncnc21` [Compound 109, 1′-(8-{[(3S)-3-fluoropyrrolidin-1-yl]carbonyl}-9-methyl-9H-purin-6-yl)spiro[indole-3,4′-piperidin]-2(1H)-one], the IC50 lay in the range of 50 to 250 nM.

Consider `Cn1c(C(=O)N2CC[C@@H](F)C2)nc2c(N3CCC4(CC3)C(=O)Nc3ccccc34)ncnc21` [Compound 110, 1′-(8-{[(3R)-3-fluoropyrrolidin-1-yl]carbonyl}-9-methyl-9H-purin-6-yl)spiro[indole-3,4′-piperidin]-2(1H)-one], for which the half-inhibitory concentration (IC50) was 50 to 250 nM. Under `Cn1c(C(=O)N[C@H]2CC[C@H](O)CC2)nc2c(N3CCC(n4c(=O)[nH]c5ccccc54)CC3)ncnc21` [Compound 111, N-(trans-4-hydroxycyclohexyl)-9-methyl-6-[4-(2-oxo-2,3-dihydro-1H-benzimidazol-1-yl)piperidin-1-yl]-9H-purine-8-carboxamide] stands less than 50 nM; under `CCCC(=O)c1nc2c(N3CCC(n4c(=O)[nH]c5ccccc54)CC3)ncnc2n1C` [Compound 113, 1-[1-(8-butanoyl-9-methyl-9H-purin-6-yl)piperidin-4-yl]-1,3-dihydro-2H-benzimidazol-2-one], 50 to 250 nM; under `CCc1nnc(-c2nc3c(N4CCC(n5c(=O)[nH]c6ccccc65)CC4)ncnc3n2C)o1` [Compound 114, 1-{1-[8-(5-ethyl-1,3,4-oxadiazol-2-yl)-9-methyl-9H-purin-6-yl]piperidin-4-yl}-1,3-dihydro-2H-benzimidazol-2-one], less than 50 nM. On to `Cc1ccc(-c2nc3c(N4CCC(n5c(=O)[nH]c6ccccc65)CC4)ncnc3n2C)o1` [Compound 115, 1-{1-[9-methyl-8-(5-methylfuran-2-yl)-9H-purin-6-yl]piperidin-4-yl}-1,3-dihydro-2H-benzimidazol-2-one], for which the IC50 lay within 250 to 500 nM. Under `Cn1c(-c2ccco2)nc2c(N3CCC(n4c(=O)[nH]c5ccccc54)CC3)ncnc21` [Compound 116, 1-[1-(8-furan-2-yl-9-methyl-9H-purin-6-yl)piperidin-4-yl]-1,3-dihydro-2H-benzimidazol-2-one] stands 250 to 500 nM. Under `Cn1c(C(=O)NCC2CC2)nc2c(N3CCC(N4C(=O)Cc5ccccc54)CC3)ncnc21` [Compound 117, N-(cyclopropylmethyl)-9-methyl-6-[4-(2-oxo-2,3-dihydro-1H-indol-1-yl)piperidin-1-yl]-9H-purine-8-carboxamide] stands 50 to 250 nM; under `Cn1c(C(=O)NCC2CC2)nc2c(N3CCC(n4c(=O)oc5ccccc54)CC3)ncnc21` [Compound 118, N-(cyclopropylmethyl)-9-methyl-6-[4-(2-oxo-1,3-benzoxazol-3(2H)-yl)piperidin-1-yl]-9H-purine-8-carboxamide], 50 to 250 nM. Turning to `Cn1c(C(=O)NCC2CC2)nc2c(N3CCC4(CC3)CC(=O)c3ccccc34)ncnc21` [Compound 119, N-(cyclopropylmethyl)-9-methyl-6-(3-oxo-2,3-dihydro-1′H-spiro[indene-1,4′-piperidin]-1′-yl)-9H-purine-8-carboxamide], the half-maximal inhibitory concentration (IC50) lay within 250 to 500 nM. For `Cn1c(C(=O)NCC2CC2)nc2c(N3CCC4(CC3)C(=O)Cc3ccccc34)ncnc21` [Compound 120, N-(cyclopropylmethyl)-9-methyl-6-(2-oxo-2,3-dihydro-1′H-spiro[indene-1,4′-piperidin]-1′-yl)-9H-purine-8-carboxamide], the IC50 is 50 to 250 nM. The molecule `Cn1c(C(=O)NCC2CC2)nc2c(N3CCC(n4ccc5ccccc54)CC3)ncnc21` [Compound 121, N-(cyclopropylmethyl)-6-[4-(1H-indol-1-yl)piperidin-1-yl]-9-methyl-9H-purine-8-carboxamide] displayed an IC50 of 500 to 1500 nM. Molecule `CC(C)c1nnc(-c2nc3c(N4CCC(n5c(=O)[nH]c6ccccc65)CC4)ncnc3n2C)o1` [Compound 122, 1-(1-{9-methyl-8-[5-(1-methylethyl)-1,3,4-oxadiazol-2-yl]-9H-purin-6-yl}piperidin-4-yl)-1,3-dihydro-2H-benzimidazol-2-one] displayed an IC50 of less than 50 nM. The value for `CCCc1nnc(-c2nc3c(N4CCC(n5c(=O)[nH]c6ccccc65)CC4)ncnc3n2C)o1` [Compound 123, 1-{1-[9-methyl-8-(5-propyl-1,3,4-oxadiazol-2-yl)-9H-purin-6-yl]piperidin-4-yl}-1,3-dihydro-2H-benzimidazol-2-one] was less than 50 nM; that for `Cn1c(-n2ccnc2)nc2c(N3CCC(n4c(=O)[nH]c5ccccc54)CC3)ncnc21` [Compound 124, 1-{1-[8-(1H-Imidazol-1-yl)-9-methyl-9H-purin-6-yl]piperidin-4-yl}-1,3-dihydro-2H-benzimidazol-2-one] was 50 to 250 nM; that for `Cn1c(-c2nnc(C3CC3)o2)nc2c(N3CCC(n4c(=O)[nH]c5ccccc54)CC3)ncnc21` [Compound 125, 1-{1-[8-(5-cyclopropyl-1,3,4-oxadiazol-2-yl)-9-methyl-9H-purin-6-yl]piperidin-4-yl}-1,3-dihydro-2H-benzimidazol-2-one] was less than 50 nM.

`Cn1c(N2CCCC2)nc2c(N3CCC(n4c(=O)[nH]c5ccccc54)CC3)ncnc21` [Compound 126, 1-[1-(9-methyl-8-pyrrolidin-1-yl-9H-purin-6-yl)piperidin-4-yl]-1,3-dihydro-2H-benzimidazol-2-one] yielded an IC50 of 500 to 1500 nM. Under `Cn1c(-n2cccc2)nc2c(N3CCC(n4c(=O)[nH]c5ccccc54)CC3)ncnc21` [Compound 127, 1-{1-[9-methyl-8-(1H-pyrrol-1-yl)-9H-purin-6-yl]piperidin-4-yl}-1,3-dihydro-2H-benzimidazol-2-one] stands 500 to 1500 nM. Under `Cc1ccoc1-c1nc2c(N3CCC(n4c(=O)[nH]c5ccccc54)CC3)ncnc2n1C` [Compound 128, 1-{1-[9-methyl-8-(3-methylfuran-2-yl)-9H-purin-6-yl]piperidin-4-yl}-1,3-dihydro-2H-benzimidazol-2-one] stands 250 to 500 nM; under `Cn1c(C(=O)NCC2CC2)nc2c(N3CCC4(CC3)C(=O)Oc3ccccc34)ncnc21` [Compound 129, N-(cyclopropylmethyl)-9-methyl-6-(2-oxo-1′H-spiro[1-benzofuran-3,4′-piperidin]-1′-yl)-9H-purine-8-carboxamide], 250 to 500 nM; under `Cn1c(C(=O)NCC2CC2)nc2c(N3CCC4(CC3)c3ccccc3CC4O)ncnc21` (centres unmarked) [Compound 130, N-(cyclopropylmethyl)-6-(2-hydroxy-2,3-dihydro-1′H-spiro[indene-1,4′-piperidin]-1′-yl)-9-methyl-9H-purine-8-carboxamide], 50 to 250 nM.

Molecule `Cn1c(C(=O)NCC2CC2)nc2c(N3CCC4(CC3)OCc3ccccc34)ncnc21` [Compound 132, N-(cyclopropylmethyl)-9-methyl-6-(1′H,3H-spiro[2-benzofuran-1,4′-piperidin]-1′-yl)-9H-purine-8-carboxamide] returned a 50% inhibitory concentration (IC50) of 500 to 1500 nM.
